Test results published in US20250361214A1, “TRIAZINE LIPIDS, LIPID SYNTHESIS, AND METHODS FOR INHIBITING CANONICAL NFKB TRANSCRIPTIONAL ACTIVITY” (University of Kentucky Research Foundation, priority 2022, published 2025).

Tests used:
[1] = Size and charge determination of nanoparticles (Zetasizer Nano ZS), Example 1; type: physicochemical
Text: Size and Charge Determination.

[2] = tested on: bone marrow derived macrophages; test: in vitro; type: cell-based
Method: (§1) Cell Culture of Bone Marrow-Derived Macrophages. […] After 7 days, the cells were transferred to tissue culture 96 well plates (Corning) at a density of 100,000 in 20 μL of medium and allowed to settle overnight for subsequent assays.
(§2) Lactate Dehydrogenase Release (LDH) Toxicity Assay. For determination of cytotoxicity, mature bone marrow-derived macrophages (BMDM) were treated with 20 μL of the lipids (concentrations denoted in figure legend) diluted in 20 mM HEPES buffer, with HEPES buffer as negative control and 10% Triton X-100 as positive control. After 24 hours, the 96 well plates were centrifuged at 200×g for 5 minutes to remove debris and 100 μL of media was transferred to an untreated flat-bottom 96 well plate. Next, 100 μL of LDH reaction reagent purchased from Cayman Chemical (Ann Arbor, MI) was added to each and allowed to sit for 30 minutes at 37° C. Absorbance at 490 and 680 nm were measured using a BioTek Synergy H1 plate reader and the data were processed using Microsoft Excel. Mean values from triplicates are shown for one of two independent experiments.

[3] = Differential scanning calorimetry, transition temperature (Tm) of lipids; type: physicochemical; conditions: liposomes of pure lipid, 10 mM in 20 mM HEPES, DSC
Method: Differential Scanning calorimetery. The transition temperature (Tm) of the lipids was determined using a multicell differential scanning calorimeter (TA Instruments). Liposomes were made with triazine lipids at a concentration of 10 mM in 20 mM HEPES buffer. These were heated to 60° C. and sonicated until the solution was translucent. For Tm determination, 250 μL of the liposome solution was transferred into reusable hastelloy ampoules while 250 μL of the HEPES solution was transferred to the third ampoule, leaving the reference ampoule empty. […] Data was collected over a range of 10-110° C. at a rate of 2° C. min-1 in a heat-cool-heat cycle. After the run was complete, the CpCalc 2.1 software package was used to convert the raw data into a molar heat capacity and the data from the second heating cycle were processed using Microsoft Excel.

[4] = tested on: canonical NFKB; test: THP-1-Blue NFKB reporter (SEAP) assay; type: cell-based, human; conditions: THP-1-Blue cells stimulated with TNFα, 24 h lipid treatment; read-out: IC50, canonical NFKB inhibition
[5] = Nanoparticle pKa via TNS fluorescence; type: physicochemical; conditions: liposomes, pH 2.5 to 12
Method: Determination of Nanoparticle pKa via TNS Fluorescence. […] The solutions were mixed by pipetting and incubated at room temperature for 10 minutes, before being analysed for fluorescence intensity using a 321 nm excitation and 445 nm emission wavelengths.

[6] = in vitro; type: cell-based; conditions: female, C57BL/6J, mouse
Method: as §1, §2

[7] = tested on: HeLa cells; test: Transfection of luciferase plasmid; type: cell-based
Method: Transfection of Luciferase Plasmid and Cell Viability. HeLa cells cultured in EMEM (ATCC) supplemented with 10% fetal bovine serum were transferred to a 96 well plate, in quadruplicate, at a density of 20,000 cells per well and incubated for 24 hours at 37° C. in 5% CO2. Liposomes made with a 1:1 ratio of DOPE and TZ lipid were added to 200 ng pGL3 Luciferase Reporter Vector (Promega) at N:P ratios of 2.5, 5 and 10, and incubated at 37° C. for 10 minutes before being diluted in 100 μL of nonsupplemented EMEM and added to the cells. Following a four hour incubation at 37° C., the media was changed, and the cells were incubated for another twenty hours, at which point the cells were lysed with a cell culture lysis reagent at pH 7.8 composed of 25 mM Tris-phosphate buffer, 0.7 g L^−1 1,2-diaminocyclohexane, 10% glycerol, 1% Triton X-100, and 1% protease inhibitor cocktail (Millipore). Total protein content was determined with a bicinchoninic acid assay (G-Biosciences) and luciferase protein expression was quantified by a luciferase assay (Promega). Cell viability was assessed using a Cell Titer Blue assay kit (Promega) based on the manufacturer's instructions. In each of the three independent experiments performed, transfection was compared with cells treated with Lipofectamine 3000 (Thermo), following the manufacturer's instructions, and with DNA treated cells.

[8] = tested on: C57BL/6J mice; test: In vivo toxicity of cationic lipid nanoparticles (ALT, IL-6, SCr, mortality)
[9] = tested on: BALB/c mice; test: Anti-hAAT antibody titers and IgG subclass ratios; type: in vivo, mouse; conditions: 25 μg hAAT protein administered with 1 mM lipid, day 14
Method: To assess the presence of antibodies toward hAAT, 50 μL of hAAT (OriGene #RG202082) was plated at 2 μg/mL in carbonate buffer, pH 9.7, on a 96 well high binding plate (Greiner #82050-720) and incubated overnight at 4° C. The next day, the plates were washed with PBS containing 0.1% Tween-20 (PBS-T) and blocked for 1 hour with PBS-C at 37° C. After blocking, serum samples were plated at dilutions ranging from 1:100 to 1:1,000,000 and incubated at 37° C. for 2 hours. Secondary antibody (goat anti-mouse IgG HRP; Invitrogen #16066) diluted 1:2000 was applied for 30 min at 37° C., followed by a 30 min. incubation with tetramethylbenzidine (Rockland). Absorbance at 450 nm was recorded using a BioTek Synergy H1 microplate reader. Reciprocal endpoint titers were determined by plotting A450 values versus known dilutions, calculating the slope of that line, and dividing the slope by two times the average of the blank (no serum) wells.
Anti-hAAT IgG subclass ratios were assessed as described above, using a single 1:100 sample dilution and the following detection antibodies: goat anti-mouse IgG1-HRP (Abcam ab98693) at 1:10,000, IgG2a-HRP (Abcam ab98698) at 1:5000, IgG2b-HRP (Abcam ab98703) at 1:10,000 and IgG3 (Jackson 115-035-209) at 1:5000. Subclass ratios were calculated by dividing the absorbance of each subclass by that of IgG1 for each individual mouse.

[10] = liposomes, lipid:DOPE mixtures, lipoplexes, immunization liposomes (Table 2)
[11] = nanoparticles of pure lipid (Table 1)
[12] = nanoparticles of pure lipid, 1 mM, 25° C. (Table 1)
[13] = zeta potential, nanoparticles of pure lipid (Table 1)
[14] = 20 mM lipid, i.p., versus baseline

| Structure (SMILES) | PDI ([1]; Table 2) | Size [1, 10] | Charge ([1]; zeta potential (Table 2)) | IC50 [2] | PDI [1, 11] | Size [1, 12] | Charge [1, 13] | Tm [3] | other results |
| --- | --- | --- | --- | --- | --- | --- | --- | --- | --- |
| CCCCCCCC/C=C\CCCCCCCCOCC(C[N+](C)(C)C)OCCCCCCCC/C=C\CCCCCCCC (stereo not drawn) [DOTMA, 1,2-di-O-octadecenyl-3-trimethylammonium propane, reference compound] | 0.43 ± 0.06 | 105 ± 2 nm | 70 ± 4 mV |  |  |  |  |  |  |
| CCCCCCCCCCCCCCCCCCN(CCCCCCCCCCCCCCCCCC)c1nc(NCCCN)nc(NCCCN)n1 [Lipid 4] |  |  |  | 180 µM | 0.28 ± 0.00 | 326 ± 1 nm | 63 ± 3 mV | 33 °C | IC50 [4]: 29 µM; pKa [5]: 5.59 |
| CCCCCCCCCCCCN(CCCCCCCCCCCC)c1nc(NCCCN)nc(NCCC(=O)O)n1 [Lipid 11] |  |  |  | 277 µM | Unstable Unstable | Unstable Unstable | 42 ± 5 mV | < 10 °C | PDI ([1]; unstable nanoparticles of lipids 11 and 12, text): 0.98 |
| CCCCCCCCCCCCN(CCCCCCCCCCCC)c1nc(NCCCN(C)C)nc(NCCCN(C)C)n1 [Lipid 9] |  |  |  |  | 0.24 ± 0.00 | 159 ± 1 nm | 45 ± 2 mV | < 10 °C | LD50 ([2]; female, C57BL/6J, mouse, 24 h): 337000 µM; IC50 at 24 h [6]: 337 µM; plasmid transfection (luciferase) ([7]; TZ lipid:DOPE 1:1, compared with naked plasmid): better efficacy than the lipids with C18 tails; luciferase expression ([7]; average, lipid 9:DOPE 1:1 at an N:P ratio of 5, 200 ng pGL3): 462 RLU per mg; deaths ([8]; 10 mM lipid, i.p.): one mouse dying; interleukin 6 (IL-6) ([8]; 10 mM lipid, i.p.): statistically significant increases; serum alanine aminotransferase (ALT) ([8]; 10 mM lipid, i.p.): statistically significant increases; deaths ([8]; 20 mM lipid, i.p.): three of the ten mice in this group died; interleukin 6 (IL-6) [8, 14]: significant elevations; serum alanine aminotransferase (ALT) [8, 14]: significant elevations; serum creatinine (SCr) [8, 14]: elevated but did not reach statistical significance; in vivo toxicity (overall) ([8]; 100 μL cationic lipid nanoparticles i.p.): confers significant toxicity and mortality; visual examination of internal organs ([8]; 72 hours, 10 and 20 mM): significant inflammation and swelling throughout the intestines and abdominal cavity |
| CCCCCCCCCCCCCC(=O)OC[C@H](COP(=O)([O-])OCC[N+](C)(C)C)OC(=O)CCCCCCCCCCCCC [DMPC, 1,2-Dimyristoyl-sn-glycero-3-phosphocholine, reference compound] | 0.39 ± 0.01 | 277 ± 45 nm | −9 ± 0.3 mV |  |  |  |  |  | LD50 ([2]; LDH activity, BMDMs incubated 24 hours, text of Example 3): 969 µM; LD50 ([2]; LDH release, 24 hours (Table 2)): 969 µM |
| CCCCCCCCCCCCCCCCCC(=O)OC[C@@H](COP(=O)([O-])OCC[N+](C)(C)C)OC(=O)CCCCCCCCCCCCCCCCC (stereo in doubt) [DSPC, 1,2-distearoyl-sn-glycero-3-phosphocholine, reference compound] |  |  |  |  |  |  |  |  | increase of anti-hAAT titers [9]: 100 fold |
